The values that follow come from patent US10869924B2, “PD-L1 antagonist combination treatments” (MERCK PATENT GMBH, priority 2015, dated 2020).

Assay [1] has as its system B16F10 melanoma. The assay can be described thus: Subcutaneous B16F10 melanoma model, avelumab, anti-4-1BB and anti-OX40 (Example 6). The conditions noted are these: anti-OX40 3 mg/kg, anti-4-1BB 1 mg/kg, avelumab 20 mg/kg, ip, 3 doses 3 to 4 days apart, C57BL/6 mice. The assay is classed as in vivo, mouse. The method, then:
Two murine models were used to evaluate the therapeutic efficacy of combinatorial treatment of anti-OX40 antibody, anti-4-1 BB and Avelumab. Six (6)- to 8-week old female C57BL/6 mice or Balb/C mice were purchased from the Jackson Laboratories. All animals were housed in a pathogen free vivarium facility at Rinat and experiments were conducted according to the protocols in accordance with the Institutional Animal Care and Use Committee (IACUC) guidelines.
The B16F10 melanoma cell line was purchased from American Type Culture Collection (ATCC). The MC38 colon carcinoma cell line was kindly provided by Dr. Antoni Ribas at University of California, Los Angeles, Calif. Cells were cultured in Dulbecco's Modified Eagle's Medium (DMEM) supplemented with 10% fetal bovine serum (FBS), 2 mM L-glutamine at 37° C. in 5% carbon dioxide (CO2). Cells growing in an exponential growth phase were harvested and used for tumor inoculation.
Therapeutic mouse anti-OX40 antibodies with either the mIgG1 or the mIgG2a isotype (anti-OX40 mIgG1 and anti-OX40 mIgG2a, respectively) were derived from parental clone OX86 in house. Therapeutic mouse anti-mouse 4-1BB antibody (mouse immunoglobulin G1 [mIgG1]), derived from the parental clone MAB9371 (R&D Systems), was prepared in-house. Avelumab was provided by Merck Serono. Isotype control mIgG1 (clone: MOPC-21) and mIgG2a (C1.18.4) was purchased from BioXcell. Human IgG1 was prepared in-house. Anti-OX40 antibody, anti-4-1BB antibody, and avelumab were dosed at 3 mg/kg, 1 mg/kg and 20 mg/kg in the B16F10 model and 1 mg/kg, 1 mg/kg and 10 mg/kg in the MC38 model, respectively, in phosphate buffered saline (PBS) (Life Technologies), and dosed at 0.2 mL per mouse intraperitoneally (ip) for 3 doses 3 to 4 days apart.
C57BL/6 mice were inoculated subcutaneously at the right flank with 0.3×10^6 B16F10 cells in 0.1 mL of PBS. Balb/C mice were inoculated subcutaneously at the right flank with 0.5×10^6 MC38 cells in 0.1 mL of PBS. When tumors reached target size, mice were randomized into treatment groups. Treatment was started on the same day as randomization. Tumor size was measured twice weekly in 2 dimensions using a caliper, and the volume was calculated in cubic millimeters using the formula: V=0.5 L×W^2 where L is the longest diameter of the tumor and W is the diameter perpendicular to L. Body weight was recorded weekly.
Results are summarized in Table 9 (B16F10 melanoma) and Table 10 (MC38 colon carcinoma) below (mean tumor size±SEM). Statistical analyses were performed using GraphPad Prism 6.0. 2-way ANOVA was applied to compare the statistical differences among multiple groups relative to the isotype control or other treatment groups. P<0.05 was considered as significant difference. Tumor measurements are in mm^3.

Assay [2] deals with B16F10 melanoma. The assay can be described thus: Subcutaneous B16F10 melanoma model, anti-4-1BB and avelumab (Example 3). The assay is classed as in vivo. The conditions noted are these: anti-4-1BB 0.1 mg/mL, avelumab 1 mg/mL, 0.2 mL per mouse ip, 3 doses 3 to 4 days apart, C57BL/6 mice. The procedure:
Six (6)- to 8-week old female C57BL/6 mice were purchased from the Jackson Laboratories. All animals were housed in a pathogen free vivarium facility at Rinat and experiments were conducted according to the protocols in accordance with the Institutional Animal Care and Use Committee (IACUC) guidelines.
The B16F10 melanoma cell line was purchased from American Type Culture Collection (ATCC). The MC38 colon carcinoma cell line was kindly provided by Dr. Antoni Ribas at University of California, Los Angeles, Calif. Cells were cultured in Dulbecco's Modified Eagle's Medium (DMEM) supplemented with 10% fetal bovine serum (FBS), 2 mM L-glutamine at 37° C. in 5% carbon dioxide (CO2), and IMPACT-tested for pathogens at Research Animal Diagnostic Laboratory (RADIL) (Columbia, Mo.). Pathogen-free cells growing in an exponential growth phase were harvested and used for tumor inoculation.
Therapeutic mouse anti-mouse 4-1BB mAb (mouse immunoglobulin G1 [mIgG1]), derived from the parental clone MAB9371 (R&D Systems), was prepared in-house. Avelumab was provided by Merck Serono. Isotype control mIgG1 (clone: MOPC-21) was purchased from BioXcell. Human IgG1 was prepared in-house. Anti-4-1BB and avelumab were diluted to concentrations of 0.1 mg/mL and 1 mg/mL, respectively, in phosphate buffered saline (PBS) (Life Technologies), and dosed at 0.2 mL per mouse intraperitoneally (ip) for 3 doses 3 to 4 days apart.
C57BL/6 mice were inoculated subcutaneously at the right flank with 0.2×10^6 B16F10 or 0.5×10^6 MC38 cells in 0.1 mL of serum-free DMEM. When tumors reached target size, mice were randomized into treatment groups. Treatment was started on the same day as randomization. Tumor size was measured twice weekly in 2 dimensions using a caliper, and the volume was expressed in cubic millimeters using the formula: V=0.5 L×W^2 where L is the longest diameter of the tumor and W is the diameter perpendicular to L. Body weight was recorded weekly.
Results were expressed as mean±SEM. Statistical analyses were performed using GraphPad Prism 6.0. One-way or 2-way ANOVA was applied to compare the statistical differences among multiple groups relative to the isotype control. P<0.05 was considered as significant difference.
Two murine models were used to evaluate the therapeutic efficacy of anti-4-1BB in combination with avelumab. In the B16F10 melanoma model, the average starting tumor size was 67 to 78 mm^3 (range 44 to 114 mm^3; n=7 animals per group) (Table 5). By Day 26 post tumor inoculation, the tumors for isotype, anti-4-1BB alone, and avelumab alone groups reached an average of 1206±397 mm^3, 1979±425 mm^3, and 2112±429 mm^3, respectively (Table 5). By contrast, dramatic tumor suppression (average of 341±146 mm^3) was observed when animals were administered with anti-4-1BB and avelumab concurrently (p<0.0001 vs single agent alone groups) (Table 5).

Turning to “Avelumab: fully human mAb of the IgG1 isotype that specifically targets and blocks PD-L1”, the “Mean Tumor Size” value in the assay on B16F10 melanoma [1] (Day 12 post-tumor inoculation (start of treatment)) worked out at 77 mm^3; in the assay on B16F10 melanoma [1] (Day 15 post-tumor inoculation) it was 236 mm^3; in the assay on B16F10 melanoma [1] (Day 18 post-tumor inoculation), 396 mm^3; with B16F10 melanoma [1] (Day 22 post-tumor inoculation), 750 mm^3; in the assay with B16F10 melanoma [1] (Day 25 post-tumor inoculation), 1291 mm^3; in the assay on B16F10 melanoma [1] (Day 29 post-tumor inoculation), 2159 mm^3. In addition, the “Mean Tumor Size” value with B16F10 melanoma [1] (Day 32 post-tumor inoculation) is listed as 2352 mm^3; in the assay with B16F10 melanoma [1] (Day 32 post-tumor inoculation, listed as avelumab) it was 2352±264 mm^3. The “Tumor Measurements of Subcutaneous B16F10 Melanoma, Mean tumor volume” value in the assay with B16F10 melanoma [2] (Day 13 post tumor inoculation (starting tumor size)) worked out at 78 mm^3; in the assay on B16F10 melanoma [2] (Day 17 post tumor inoculation), 327 mm^3; with B16F10 melanoma [2] (Day 20 post tumor inoculation), 654 mm^3; with B16F10 melanoma [2] (Day 24 post tumor inoculation), 1304 mm^3; with B16F10 melanoma [2] (Day 26 post tumor inoculation) it was 2112 mm^3; in the assay on B16F10 melanoma [2] (Day 26 post tumor inoculation, listed as avelumab) it was 2112±429 mm^3.
